Data: US6949571B2, “1,2-dihydropyridine compounds, process for preparation of the same and use thereof” (Eisai Co., Ltd., priority 2000, dated 2005)
Where two headings read alike, the source gives them in different places.

Test system: AMPA receptor
[1] = Table 1, primary culture of rat embryo cerebral cortex nerve cells, 2 μM AMPA, 1 μM MK-801
[2] = Table 2, suppression of AMPA-induced calcium influx into nerve cells
[3] = Table 3, primary culture of rat embryo cerebral cortex nerve cells, 2 μM AMPA, 1 μM MK-801
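Note: primary rat embryonic cortical neurons grown on an astrocyte layer in 96-well plates, used after at least 8 to 10 days in culture, Fura2-AM fluorescence ratio at 340/380 nm excitation.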

Question: With `N#Cc1ccccc1-c1cc(-c2ccccn2)cn(-c2ccc(F)nc2)c1=O` [Example 123, 3-(2-Cyanophenyl)-5-(2-pyridyl)-1-(2-fluoropyridin-5-yl)-1,2-dihydropyridin-2-one] as the molecule, how does the IC50 [1] read?
Answer: 200 nM

Question: With `N#Cc1ccccc1-c1cc(-c2cccnc2)cn(-c2ccccc2)c1=O` [Example 34, 3-(2-Cyanophenyl)-5-(3-pyridyl)-1-phenyl-1,2-dihydropyridin-2-one] as the molecule, how does the IC50 [1] read?
Answer: 3700 nM

Question: `O=c1c(NC23CC4CC(CC(C4)C2)C3)cc(-c2ccccn2)cn1-c1ccccc1` [Example 176, 3-(1-Adamantylamino)-5-(2-pyridyl)-1-phenyl-1,2-dihydropyridin-2-one] was tested. Which IC50 [2] did it give?
Answer: 5400 nM

Question: How did the IC50 [2] turn out when `O=c1c(-c2ccc(F)nc2)cc(-c2ccccn2)cn1-c1ccccc1` [Example 288, 3-(2-Fluoropyridin-5-yl)-5-(2-pyridyl)-1-phenyl-1,2-dihydropyridin-2-one] was run?
Answer: 1200 nM

Question: `COC(=O)c1cccc(-c2cc(-c3ccccc3C#N)c(=O)n(-c3ccccc3)c2)n1` [Example 303, 3-(2-Cyanophenyl)-5-(2-methoxycarbonylpyridin-6-yl)-1-phenyl-1,2-dihydropyridin-2-one] was tested. Which IC50 [3] did it give?
Answer: 900 nM

Question: How did the IC50 [1] turn out when `N#Cc1ccccc1-c1cc(-c2ccccc2)c(=O)n(-c2ccccn2)c1` [Example 38, 3-Phenyl-5-(2-cyanophenyl)-1-(2-pyridyl)-1,2-dihydropyridin-2-one] was run?
Answer: 6300 nM

Question: With `O=c1c(-c2ccsc2)cc(-c2ccccn2)cn1-c1cccnc1` [Example 133, 3-(Thiophen-3-yl)-5-(2-pyridyl)-1-(3-pyridyl)-1,2-dihydropyridin-2-one] as the molecule, how does the IC50 [1] read?
Answer: 300 nM

Question: For `N#Cc1cccc(-c2cc(-c3ccccc3C#N)c(=O)n(-c3ccccc3)c2)n1` [Example 236, 3-(2-Cyanophenyl)-5-(2-cyanopyridin-6-yl)-1-phenyl-1,2-dihydropyridin-2-one], which IC50 [2] is on record?
Answer: 600 nM

Question: With `N#Cc1ccccc1-c1cc(-c2ccccn2)cn(-c2cccc([N+](=O)[O-])c2)c1=O` [Example 8, 3-(2-Cyanophenyl)-5-(2-pyridyl)-1-(3-nitrophenyl)-1,2-dihydropyridin-2-one] as the molecule, how does the IC50 [1] read?
Answer: 100 nM

Question: Which IC50 [1] does the source give for `CS(=O)(=O)Nc1ccccc1-c1cc(-c2ccccc2C#N)c(=O)n(-c2ccccc2)c1` [Example 3, 3-(2-Cyanophenyl)-5-(2-methylsulfonylaminophenyl)-1-phenyl-1,2-dihydropyridin-2-one] here?
Answer: 300 nM

Question: With `N#Cc1ccccc1-c1cc(-c2ccccn2)cn(-c2ccccc2C=O)c1=O` [Example 101, 3-(2-Cyanophenyl)-5-(2-pyridyl)-1-(2-formylphenyl)-1,2-dihydropyridin-2-one] as the molecule, how does the IC50 [1] read?
Answer: 200 nM

Question: For `CC(=O)NCc1cccc(-n2cc(-c3ccccn3)cc(-c3ccccc3C#N)c2=O)c1` [Example 23, 3-(2-Cyanophenyl)-5-(2-pyridyl)-1-(3-acetylaminomethylphenyl)-1,2-dihydropyridin-2-one], which IC50 [1] is on record?
Answer: 200 nM

Question: Which IC50 [2] does the source give for `N#Cc1ccccc1-c1cc(-c2ccccn2)cn(-c2cccc(OCCCN3CCCCC3)c2)c1=O` [Example 244, 3-(2-Cyanophenyl)-1-[3-(piperidinopropyloxy)phenyl]-5-(2-pyridyl)-1,2-dihydropyridin-2-one] here?
Answer: 1800 nM

Question: With `O=c1c(-c2ccccc2Cl)cc(-c2ccccn2)cn1-c1cccc(O)c1` [Example 143, 3-(2-Chlorophenyl)-5-(2-pyridyl)-1-(3-hydroxyphenyl)-1,2-dihydropyridin-2-one] as the molecule, how does the IC50 [2] read?
Answer: 100 nM

Question: Which IC50 [1] does the source give for `O=c1c(-c2cccc(F)c2)cc(-c2ccccn2)cn1-c1ccccc1` [Example 72, 3-(3-Fluorophenyl)-5-(2-pyridyl)-1-phenyl-1,2-dihydropyridin-2-one] here?
Answer: 700 nM

Question: Which IC50 [1] does the source give for `N#CCc1cccc(-n2cc(-c3ccccn3)cc(-c3ccccc3C#N)c2=O)c1` [Example 22, 3-(2-Cyanophenyl)-5-(2-pyridyl)-1-(3-cyanomethylphenyl)-1,2-dihydropyridin-2-one] here?
Answer: 60 nM

Question: `N#Cc1cccc(-c2cc(-c3ccccc3)cn(-c3cccnc3)c2=O)n1` [Example 79, 3-(6-Cyano-2-pyridyl)-5-phenyl-1-(3-pyridyl)-1,2-dihydropyridin-2-one] was tested. Which IC50 [1] did it give?
Answer: 2600 nM

Question: `COc1ccccc1-c1cc(-c2ccccc2C#N)c(=O)n(-c2ccccc2)c1` [Example 42, 3-(2-Cyanophenyl)-5-(2-methoxyphenyl)-1-phenyl-1,2-dihydropyridin-2-one] was tested. Which IC50 [1] did it give?
Answer: 200 nM

Question: For `COCC1CN(c2cccc(-n3cc(-c4ccccn4)cc(-c4ccccc4C#N)c3=O)c2)C(=O)O1` (stereo not shown) [Example 13, 3-(2-Cyanophenyl)-5-(2-pyridyl)-1-[3-(5-methoxymethyl-2-oxazolidinon-3-yl)-phenyl]-1,2-dihydropyridin-2-one], which IC50 [1] is on record?
Answer: 200 nM

Question: `N#Cc1ccccc1-c1cc(-c2ccsc2C=O)cn(-c2ccccc2)c1=O` [Example 28, 3-(2-Cyanophenyl)-5-(2-formylthiophen-3-yl)-1-phenyl-1,2-dihydropyridin-2-one] was tested. Which IC50 [1] did it give?
Answer: 200 nM

Question: For `N#Cc1ccccc1-c1cc(-c2ccccn2)cn(-c2cccc(OCCN3CCOCC3)c2)c1=O` [Example 245, 3-(2-Cyanophenyl)-1-[3-(morpholinoethoxy)phenyl]-5-(2-pyridyl)-1,2-dihydropyridin-2-one], which IC50 [2] is on record?
Answer: 1200 nM

Question: With `O=c1c(-c2ccccc2Cl)cc(Sc2ccc(Cl)cc2)cn1-c1cccnc1` [Example 385, 3-(2-Chlorophenyl)-5-(4-chlorophenylthio)-1-(3-pyridyl)-1,2-dihydropyridin-2-one] as the molecule, how does the IC50 [3] read?
Answer: 1100 nM

Question: With `O=c1c(-c2cnccn2)cc(-c2ccccn2)cn1-c1ccccc1` [Example 253, 1-Phenyl-3-(2-pyrazyl)-5-(2-pyridyl)-1,2-dihydropyridin-2-one] as the molecule, how does the IC50 [2] read?
Answer: 4700 nM

Question: For `N#Cc1ccccc1-c1cc(-c2ccccn2)cn(C2CCCC2)c1=O` [Example 171, 3-(2-Cyanophenyl)-1-cyclopentyl-5-(2-pyridyl)-1,2-dihydropyridin-2-one], which IC50 [2] is on record?
Answer: 2300 nM

Question: Which IC50 [3] does the source give for `CC(=O)N1CCC(Oc2cccc(-n3cc(-c4ccccn4)cc(-c4ccccc4C#N)c3=O)c2)CC1` [Example 333, 1-[3-(N-acetylpiperidin-4-yl-oxy)phenyl]-3-(2-cyanophenyl)-5-(2-pyridyl)-1,2-dihydropyridin-2-one] here?
Answer: 300 nM

Question: With `CS(=O)(=O)Nc1ccc(-c2cc(-c3ccccn3)cn(-c3ccccc3)c2=O)cc1` [Example 227, 3-[4-(Methanesulfonylamino)phenyl]-1-phenyl-5-(2-pyridyl)-1,2-dihydropyridin-2-one] as the molecule, how does the IC50 [2] read?
Answer: 1800 nM

Question: For `N#Cc1ccc(-c2cc(-c3ccccn3)cn(-c3ccccc3)c2=O)cc1` [Example 64, 3-(4-Cyanophenyl)-5-(2-pyridyl)-1-phenyl-1,2-dihydropyridin-2-one], which IC50 [1] is on record?
Answer: 2800 nM

Question: `N#Cc1ccccc1-c1cc(-c2ccccn2)cn(-c2ccc(OCCOCc3ccccc3)nc2)c1=O` [Example 114, 3-(2-Cyanophenyl)-5-(2-pyridyl)-1-(2-benzyloxyethoxypyridin-5-yl)-1,2-dihydropyridin-2-one] was tested. Which IC50 [1] did it give?
Answer: 600 nM

Question: Which IC50 [1] does the source give for `O=c1c(-c2cccnc2F)cc(-c2ccccn2)cn1-c1cccc(F)c1` [Example 88, 3-(2-Fluoro-3-pyridyl)-5-(2-pyridyl)-1-(3-fluorophenyl)-1,2-dihydropyridin-2-one] here?
Answer: 300 nM

Question: `N#Cc1ccccc1-c1cc(-c2ccccc2N)cn(-c2ccccc2)c1=O` [Example 2, 5-(2-Aminophenyl)-3-(2-cyanophenyl)-1-phenyl-1,2-dihydropyridin-2-one] was tested. Which IC50 [1] did it give?
Answer: 1800 nM

Question: `O=c1c(-c2ccc(Cl)nc2)cc(-c2ccccn2)cn1-c1ccccc1` [Example 287, 3-(2-Chloropyridin-5-yl)-5-(2-pyridyl)-1-phenyl-1,2-dihydropyridin-2-one] was tested. Which IC50 [2] did it give?
Answer: 5600 nM

Question: Which IC50 [3] does the source give for `Cc1cccc2[nH]c(-c3cc(-c4ccccc4C#N)c(=O)n(-c4ccccc4)c3)nc12` [Example 352, 3-(2-Cyanophenyl)-5-(4-methyl-1H-benzimidazol-2-yl)-1-phenyl-1,2-dihydropyridin-2-one] here?
Answer: 1600 nM

Question: `O=c1c(-c2ccccc2O)cc(-c2ccccn2)cn1-c1ccccc1` [Example 141, 3-(2-Hydroxyphenyl)-5-(2-pyridyl)-1-phenyl-1,2-dihydropyridin-2-one] was tested. Which IC50 [2] did it give?
Answer: 700 nM

Question: How did the IC50 [2] turn out when `CS(=O)(=O)Nc1cccc(-c2cc(-c3ccccn3)cn(-c3ccccc3)c2=O)c1` [Example 228, 3-[3-(Methanesulfonylamino)phenyl]-1-phenyl-5-(2-pyridyl)-1,2-dihydropyridin-2-one] was run?
Answer: 2700 nM

Question: `O=c1c(-c2cccc3ccccc23)cc(-c2ccccn2)cn1-c1cccnc1` [Example 279, 3-(1-Naphthyl)-5-(2-pyridyl)-1-(3-pyridyl)-1,2-dihydropyridin-2-one] was tested. Which IC50 [2] did it give?
Answer: 3700 nM

Question: `Cc1ccc(-n2cc(-c3ccccn3)cc(-c3ccccc3C#N)c2=O)cc1` [Example 107, 3-(2-Cyanophenyl)-5-(2-pyridyl)-1-(4-tolyl)-1,2-dihydropyridin-2-one] was tested. Which IC50 [1] did it give?
Answer: 70 nM

Question: `O=c1c(-n2ccc3ccccc32)cc(-c2ccccn2)cn1-c1ccccc1` [Example 326, 3-(Indol-1-yl)-5-(2-pyridyl)-1-phenyl-1,2-dihydropyridin-2-one] was tested. Which IC50 [3] did it give?
Answer: 900 nM

Question: With `O=c1c(-c2ccccc2)cc(-c2ccccc2)cn1-c1ccccn1` [Example 37, 3,5-Diphenyl-1-(2-pyridyl)-1,2-dihydropyridin-2-one] as the molecule, how does the IC50 [1] read?
Answer: 700 nM

Question: With `N#Cc1ccccc1-c1cc(-c2ccco2)cn(-c2ccccc2)c1=O` [Example 49] as the molecule, how does the IC50 [1] read?
Answer: 200 nM

Question: With `CCc1ccc(-n2cc(-c3ccccn3)cc(-c3ccccc3C#N)c2=O)cn1` [Example 124, 3-(2-Cyanophenyl)-5-(2-pyridyl)-1-(2-ethylpyridine-5-yl)-1,2-dihydropyridin-2-one] as the molecule, how does the IC50 [1] read?
Answer: 700 nM

Question: `N#Cc1ccccc1-c1cc(-c2cccc[n+]2[O-])cn(-c2ccccc2)c1=O` [Example 173, 3-(2-Cyanophenyl)-5-(2-pyridyl 1-oxide)-1-phenyl-1,2-dihydropyridin-2-one] was tested. Which IC50 [2] did it give?
Answer: 4200 nM

Question: With `CCN(CC)Cc1sccc1-c1cc(-c2ccccc2C#N)c(=O)n(-c2ccccc2)c1` [Example 29, 3-(2-Cyanophenyl)-5-(2-diethylaminomethylthiophen-3-yl)-1-phenyl-1,2-dihydropyridin-2-one] as the molecule, how does the IC50 [1] read?
Answer: 100 nM

Question: How did the IC50 [2] turn out when `CN(C)CCCOc1cccc(-n2cc(-c3ccccn3)cc(-c3ccccc3C#N)c2=O)c1` [Example 243, 3-(2-Cyanophenyl)-1-[3-(dimethylaminopropyloxy)phenyl]-5-(2-pyridyl)-1,2-dihydropyridin-2-one] was run?
Answer: 1200 nM
